From ChEMBL document CHEMBL1127728, “Docking analysis of a series of benzylamino acetylcholinesterase inhibitors with a phthalimide, benzoyl, or indanone moiety” (J Med Chem, 1994)

These compounds were tested against T1, Acetylcholinesterase (Rattus norvegicus, UniProt P37136) (assay: Inhibition concentration against rat acetylcholinesterase).
T1 sequence (P37136 whole entry): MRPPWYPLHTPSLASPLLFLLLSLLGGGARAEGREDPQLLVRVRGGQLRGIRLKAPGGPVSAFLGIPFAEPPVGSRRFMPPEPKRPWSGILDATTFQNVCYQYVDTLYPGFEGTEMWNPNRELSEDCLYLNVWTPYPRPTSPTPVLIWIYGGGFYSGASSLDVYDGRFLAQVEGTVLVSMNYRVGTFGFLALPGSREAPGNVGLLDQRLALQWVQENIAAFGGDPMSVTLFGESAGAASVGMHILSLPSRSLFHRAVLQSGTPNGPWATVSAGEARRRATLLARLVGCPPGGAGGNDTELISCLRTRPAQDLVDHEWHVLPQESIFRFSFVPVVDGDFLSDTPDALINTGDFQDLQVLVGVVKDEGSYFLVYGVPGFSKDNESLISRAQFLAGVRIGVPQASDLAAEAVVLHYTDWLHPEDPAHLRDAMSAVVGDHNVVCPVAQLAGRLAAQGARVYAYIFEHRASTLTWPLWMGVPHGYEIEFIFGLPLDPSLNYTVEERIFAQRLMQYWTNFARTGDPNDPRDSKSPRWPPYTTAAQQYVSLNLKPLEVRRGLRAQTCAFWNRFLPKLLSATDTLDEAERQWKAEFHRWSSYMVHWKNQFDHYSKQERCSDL
CCCN(CCCCCN1C(=O)c2ccc([N+](=O)[O-])cc2C1=O)Cc1ccccc1 gave an IC50 of 2650 nM.
Compound CCN(CCCCCC(=O)c1ccc(N2CCCC2)cc1)Cc1ccccc1 has an IC50 of 305 nM.
CN(CCCCCN1C(=O)c2ccc([N+](=O)[O-])cc2C1=O)Cc1ccccc1 was tested, and the IC50 was 1360 nM.
With CCN(CCCCCN1C(=O)c2ccc([N+](=O)[O-])cc2C1=O)Cc1cccc(OC(=O)NC)c1 the IC50 was 0.38 nM.
For CCN(CCCCCN1C(=O)c2ccc([N+](=O)[O-])cc2C1=O)Cc1ccccc1OC, the IC50 was 24 nM.
CCN(CCCCCN1C(=O)C2CCCCC2C1=O)Cc1ccccc1 (stereo unspecified) was tested, and the IC50 was 18500 nM.
In the case of CCN(CCCCCNC(=O)/C=C/c1ccccc1)Cc1ccccc1, the IC50 is reported as 11800 nM.
With CCN(CCCCCC(=O)c1ccc(OC)c(OC)c1)Cc1ccccc1OC the IC50 was 24 nM.
In the case of O=C1c2ccc([N+](=O)[O-])cc2C(=O)N1CCC1CCN(Cc2ccccc2)CC1, the IC50 is reported as 13 nM.
In the case of CCN(CCCCCN(C(C)=O)C(=O)/C=C/c1ccc([N+](=O)[O-])cc1)Cc1ccccc1, the IC50 is reported as 539 nM.
CCN(CCCCCCCc1ccc(OC)c(OC)c1)Cc1ccccc1OC showed an IC50 of 1070 nM.
With CCN(CCCCCN1C(=O)c2ccccc2C1=O)Cc1ccccc1 the IC50 was 3370 nM.
In the case of COc1ccc(C(=O)CCC2CCN(Cc3ccccc3)CC2)cc1OC, the IC50 is reported as 52 nM.
For O=C1c2ccc([N+](=O)[O-])cc2C(=O)N1C1CCN(Cc2ccccc2)CC1, the IC50 was 27000 nM.
CCN(CCCCCN1C(=O)c2ccc([N+](=O)[O-])cc2C1=O)Cc1cccc(OC)c1OC gave an IC50 of 274 nM.
For CCN(CCCCCN1C(=O)c2ccc([N+](=O)[O-])cc2C1=O)CCc1ccccc1, the IC50 was 770 nM.
In the case of O=C1c2ccc([N+](=O)[O-])cc2C(=O)N1CC1CCN(Cc2ccccc2)CC1, the IC50 is reported as 3000 nM.
With CCN(CCCCCN1C(=O)c2ccc([N+](=O)[O-])cc2C1=O)CC1CCCCC1 the IC50 was 1090 nM.
In the case of CCN(CCCCCCN1C(=O)c2ccc([N+](=O)[O-])cc2C1=O)Cc1ccccc1, the IC50 is reported as 607 nM.
In the case of O=C1c2ccccc2C(=O)N1CCC1CCN(Cc2ccccc2)CC1, the IC50 is reported as 30 nM.
CCN(CCCCCCOc1ccc(OC)c(OC)c1)Cc1ccccc1OC showed an IC50 of 920 nM.
Compound CCN(CCCCCCC(=O)c1ccc(OC)c(OC)c1)Cc1ccccc1OC has an IC50 of 10 nM.
For CN(CCCCCCN1C(=O)c2ccc([N+](=O)[O-])cc2C1=O)Cc1ccccc1, the IC50 was 474 nM.
With COc1ccccc1CN1CCC(CCC(=O)c2ccc(N3CCCC3)cc2)CC1 the IC50 was 1900 nM.
For CCN(CCCCCN(C(C)=O)C(=O)/C=C/c1ccccc1)Cc1ccccc1, the IC50 was 2300 nM.
CCN(CCCCCN1C(=O)c2ccc([N+](=O)[O-])cc2C1=O)CCCc1ccccc1 was tested, and the IC50 was 161 nM.
